One data set concerns mouse fibroblasts L929. The experiment in a line: MTT-based cytotoxicity assay. The data set is classed as cell-based. The settings on record: Mus musculus, starting concentration 37 µg/mL, read-out: IC50. As to the method: (§1) The Minimum Inhibitory Concentration (MIC) of the isolated metabolites (1–8) was evaluated using serial dilution assays in a 96-well microtiter plate against a panel of Gram-positive bacteria, namely Bacillus subtilis DSM 10, Mycobacterium smegmatis ATCC 700084 and Staphylococcus aureus DSM 346; Gram-negative bacteria, including Acinetobacter baumannii DSM 30008, Chromobacterium violaceum DSM 30191, Escherichia coli DSM 1116 and Pseudomonas aeruginosa PA14 and fungal cultures of Candida albicans DSM 1665, Mucor hiemalis DSM 2656, Rhodotorula glutinis DSM 10134, Schizosaccharomyces pombe DSM 70572 and Wickerhamomyces anomalus DSM 6766, according to previously described protocols. The MTT-based cytotoxicity assay was performed against several cancer cell lines (human endocervical adenocarcinoma KB 3.1, mouse fibroblasts L929, squamous cancer A431, breast cancer MCF-7, lung cancer A549, ovary cancer SK-OV-3, and prostate cancer PC-3) in accordance with our previously established protocols.

The test system of data set [1] is human endocervical adenocarcinoma KB 3.1. The experiment in a line: MTT-based cytotoxicity assay. The data set is classed as cell-based. As to conditions: Homo sapiens, KB 3-1; KB3.1; starting concentration 37 µg/mL; read-out: IC50. As to the method:
as §1

For data set [2], the system named is Rhodotorula glutinis DSM 10134. The experiment in a line: MIC serial dilution assay. The data set is classed as cell-based. Set-up: key: (-): No inhibition. The settings on record: Rhodoturula glutinis, starting concentration 66.7 μg/mL. The procedure: as §1
Data set [3] concerns Staphylococcus aureus DSM 346. Nature of the data set: MIC serial dilution assay. The data set is classed as cell-based. On the set-up: key: (-): No inhibition. As to the method:
as §1

The test system of data set [4] is Candida albicans DSM 1665. The experiment in a line: MIC serial dilution assay. As to conditions: starting concentration 66.7 μg/mL. Format: cell-based. On the set-up: key: (-): No inhibition. The procedure:
as §1

In data set [5] the test system is Chromobacterium violaceum DSM 30191. The experiment in a line: MIC serial dilution assay. Set-up: key: (-): No inhibition. As to conditions: starting concentration 66.7 μg/mL. Format: cell-based. The procedure: as §1
In data set [6] the test system is Wickerhamomyces anomalus DSM 6766. The experiment in a line: MIC serial dilution assay. The data set is classed as cell-based. On the set-up: key: (-): No inhibition. As to the method:
as §1

The subject of data set [7] is Acinetobacter baumannii DSM 30008. Nature of the data set: MIC serial dilution assay. Format: cell-based. Set-up: key: (-): No inhibition. As to conditions: Acinetobacter baumanii; starting concentration 66.7 μg/mL. The procedure: as §1
For data set [8], the system named is Schizosaccharomyces pombe DSM 70572. The experiment in a line: MIC serial dilution assay. Format: cell-based. On the set-up: key: (-): No inhibition. As to the method:
as §1

The subject of data set [9] is Escherichia coli DSM 1116. The experiment in a line: MIC serial dilution assay. The data set is classed as cell-based. Set-up: key: (-): No inhibition. The settings on record: starting concentration 66.7 μg/mL. As to the method: as §1
The test system of a further data set is Bacillus subtilis DSM 10. Nature of the data set: MIC serial dilution assay. The data set is classed as cell-based. Set-up: key: (-): No inhibition. The procedure: as §1
For data set [10], the system named is Pseudomonas aeruginosa PA14. Nature of the data set: MIC serial dilution assay. On the set-up: key: (-): No inhibition. The settings on record: starting concentration 66.7 μg/mL. The data set is classed as cell-based. The procedure: as §1
For a further data set, the system named is Mucor hiemalis DSM 2656. The experiment in a line: MIC serial dilution assay. The data set is classed as cell-based. Set-up: key: (-): No inhibition. As to the method: as §1
Data set [11] deals with Mycobacterium smegmatis ATCC 700084. The experiment in a line: MIC serial dilution assay. Format: cell-based. Set-up: key: (-): No inhibition. As to conditions: starting concentration 66.7 μg/mL. The procedure: as §1
The next data set has as its system mammalian cell lines. Nature of the data set: cells. Format: cell-based. The procedure:
as §1

Data set [12] deals with panel of bacteria and fungi. The experiment in a line: Antimicrobial serial dilution assay, whole panel. Format: cell-based. The settings on record: result in words. The procedure:
as §1

Another data set has as its system prostate cancer PC-3. Nature of the data set: MTT-based cytotoxicity assay. The settings on record: PC-3; starting concentration 37 µg/mL; read-out: IC50. The data set is classed as cell-based. The procedure:
as §1

The test system of another data set is breast cancer MCF-7. Nature of the data set: MTT-based cytotoxicity assay. Format: cell-based. The settings on record: Homo sapiens, MCF7; MCF-7; starting concentration 37 µg/mL; read-out: IC50. As to the method: as §1
The next data set deals with ovary cancer SK-OV-3. Nature of the data set: MTT-based cytotoxicity assay. The data set is classed as cell-based. As to conditions: Homo sapiens, SK-OV-3; SKOV-3; starting concentration 37 µg/mL; read-out: IC50. The procedure:
as §1

The next data set deals with squamous cancer A431. The experiment in a line: MTT-based cytotoxicity assay. The settings on record: Homo sapiens, A-431; A431; starting concentration 37 µg/mL; read-out: IC50. Format: cell-based. The procedure: as §1
The test system of another data set is lung cancer A549. The experiment in a line: MTT-based cytotoxicity assay. The data set is classed as cell-based. The settings on record: Homo sapiens, starting concentration 37 µg/mL, read-out: IC50. The procedure: as §1
Another data set deals with MptpB. As to conditions: result in words; ref 63 (Cui et al.); cited from earlier work.
[13] abbreviates: starting concentration 66.7 μg/mL.

The structures appear in SMILES notation. pIC50: −log10 of the molar value. ≈ marks a conversion by molar mass, not a printed value. Read-outs that look alike come from different tables or passages of the source.

For the molecule `CCC(C)C1OC(=O)CNC(=O)CNC(=O)[C@H]([C@@H](C)O)NC(=O)C(C)C(O)CC(O)CC/C=C/C1C` (some centres unmarked) [Compound 1, eucalactam B], the pIC50 (with mouse fibroblasts L929; in [1]) was below 4.14 throughout. For the same molecule, the MIC result in [2], in data set [3] (setting [13]), in data set [4], in data set [5], in [6] (setting [13]) and in [7] was “-” in each case. Moreover, the minimal inhibitory concentration (MIC) result (in [8] (setting [13]); in data set [9]; against Bacillus subtilis DSM 10 (setting [13]); in data set [10]; in the data set with Mucor hiemalis DSM 2656 (setting [13]); in data set [11]) was “-” each time. Further, the cytotoxic effect result in the data set on mammalian cell lines (mammalian cell lines, result in words) is listed as “did not show any cytotoxic effect”. For the same molecule, the “antimicrobial activity against the tested microorganisms” value in [12] was “devoid of any activity”.

Consider `CC(C)=CCc1ccc(O)c(C=O)c1C(=O)c1cc(C)cc2c1OC(C(C)(C)O)CO2` (centres unmarked) [Compound 6, tenellone B], for which the negative-log IC50 (pIC50) in the data set on prostate cancer PC-3 is 4.75; in the data set with breast cancer MCF-7, 4.75; in the data set with ovary cancer SK-OV-3 it was 4.37; with mouse fibroblasts L929 it was 4.31; in [1], 4.70; in the data set on squamous cancer A431 it was 4.71. The pIC50 with lung cancer A549 is 4.68; in the data set with mammalian cell lines (A431, MCF-7, A549, SKOV-3 and PC-3, read-out: IC50, range over five other mammalian cell lines), 4.37 to 4.75. In addition, the minimal inhibitory concentration (MIC) was 16.6 µg/mL (≈ 39.1 µM) in data set [2] (Rhodotorula glutinis, DSM10134, read-out: MIC); 16.6 µg/mL (≈ 39.1 µM) in data set [3] (DSM346, starting concentration 66.7 μg/mL, read-out: MIC); “-” in [4]; “-” in [5]; 66.6 µg/mL (≈ 157 µM) in data set [6] (Hansenula anomala, DSM6766, starting concentration 66.7 μg/mL, read-out: MIC); “-” in data set [7]. Besides, the minimum inhibitory concentration (MIC) in data set [8] (DSM70572, starting concentration 66.7 μg/mL, read-out: MIC) was 66.6 µg/mL (≈ 157 µM); in data set [9] it was “-”; in the data set with Bacillus subtilis DSM 10 (DSM10, starting concentration 66.7 μg/mL, read-out: MIC), 16.6 µg/mL (≈ 39.1 µM); in data set [10], “-”; in the data set on Mucor hiemalis DSM 2656 (DSM2656, starting concentration 66.7 μg/mL, read-out: MIC), 16.6 µg/mL (≈ 39.1 µM); in [11], “-”.

As to `CC(C)=CCc1ccc(O)c2c1[C@@H](c1cc(C)cc3c1O[C@H](C(C)(C)O)CO3)NC2=O` [diaporisoindole A], the “inhibitory activity against MptpB” value in the data set with MptpB is reported as “potent inhibitory activity”.

With `CC(C)=CCc1ccc(O)c2c1[C@H](c1cc(C)cc3c1O[C@H](C(C)(C)O)CO3)NC2=O` [diaporisoindole B], the “inhibitory activity against MptpB” value with MptpB is reported as “failed to show any activity”.

The values above are taken from article PMC10381184, “Unprecedented Antimicrobial and Cytotoxic Polyketides from Cultures of Diaporthe africana sp. nov” (Journal of Fungi, 2023).
